Laboratory results from ChEMBL document CHEMBL1201862, “PubChem BioAssay data set” (2004).
Each block holds one molecule with its values, some of them ahead of it. Calls of active or inactive are those of the source.

Tests used:
[1] = P. falciparum late gametocyte killing, dose response, luminescence (AID 1117278); type: functional, cell-based;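 note: gametocytes exposed to compound for 24 hours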
[2] = Jurkat T cell cytotoxicity, dose response, cytotoxicity control for P. falciparum gametocyte viability project, luminescence (AID 1117277); type: functional, cell-based;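 note: potency reflects loss of cellular ATP meaning fewer viable cells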
[3] = target: Ion channel NompC (Danio rerio, UniProt Q7T1G6); test: Fluorescence counterscreen assay for TRPML3 agonists: dose response cell-based high-throughput screening assay to identify agonists of the transient receptor potential channel N1 (TRPN1). [Related pubchem assays: 1526, 1424, 1448 ]; type: functional
Chain of Ion channel NompC (Q7T1G6 whole entry): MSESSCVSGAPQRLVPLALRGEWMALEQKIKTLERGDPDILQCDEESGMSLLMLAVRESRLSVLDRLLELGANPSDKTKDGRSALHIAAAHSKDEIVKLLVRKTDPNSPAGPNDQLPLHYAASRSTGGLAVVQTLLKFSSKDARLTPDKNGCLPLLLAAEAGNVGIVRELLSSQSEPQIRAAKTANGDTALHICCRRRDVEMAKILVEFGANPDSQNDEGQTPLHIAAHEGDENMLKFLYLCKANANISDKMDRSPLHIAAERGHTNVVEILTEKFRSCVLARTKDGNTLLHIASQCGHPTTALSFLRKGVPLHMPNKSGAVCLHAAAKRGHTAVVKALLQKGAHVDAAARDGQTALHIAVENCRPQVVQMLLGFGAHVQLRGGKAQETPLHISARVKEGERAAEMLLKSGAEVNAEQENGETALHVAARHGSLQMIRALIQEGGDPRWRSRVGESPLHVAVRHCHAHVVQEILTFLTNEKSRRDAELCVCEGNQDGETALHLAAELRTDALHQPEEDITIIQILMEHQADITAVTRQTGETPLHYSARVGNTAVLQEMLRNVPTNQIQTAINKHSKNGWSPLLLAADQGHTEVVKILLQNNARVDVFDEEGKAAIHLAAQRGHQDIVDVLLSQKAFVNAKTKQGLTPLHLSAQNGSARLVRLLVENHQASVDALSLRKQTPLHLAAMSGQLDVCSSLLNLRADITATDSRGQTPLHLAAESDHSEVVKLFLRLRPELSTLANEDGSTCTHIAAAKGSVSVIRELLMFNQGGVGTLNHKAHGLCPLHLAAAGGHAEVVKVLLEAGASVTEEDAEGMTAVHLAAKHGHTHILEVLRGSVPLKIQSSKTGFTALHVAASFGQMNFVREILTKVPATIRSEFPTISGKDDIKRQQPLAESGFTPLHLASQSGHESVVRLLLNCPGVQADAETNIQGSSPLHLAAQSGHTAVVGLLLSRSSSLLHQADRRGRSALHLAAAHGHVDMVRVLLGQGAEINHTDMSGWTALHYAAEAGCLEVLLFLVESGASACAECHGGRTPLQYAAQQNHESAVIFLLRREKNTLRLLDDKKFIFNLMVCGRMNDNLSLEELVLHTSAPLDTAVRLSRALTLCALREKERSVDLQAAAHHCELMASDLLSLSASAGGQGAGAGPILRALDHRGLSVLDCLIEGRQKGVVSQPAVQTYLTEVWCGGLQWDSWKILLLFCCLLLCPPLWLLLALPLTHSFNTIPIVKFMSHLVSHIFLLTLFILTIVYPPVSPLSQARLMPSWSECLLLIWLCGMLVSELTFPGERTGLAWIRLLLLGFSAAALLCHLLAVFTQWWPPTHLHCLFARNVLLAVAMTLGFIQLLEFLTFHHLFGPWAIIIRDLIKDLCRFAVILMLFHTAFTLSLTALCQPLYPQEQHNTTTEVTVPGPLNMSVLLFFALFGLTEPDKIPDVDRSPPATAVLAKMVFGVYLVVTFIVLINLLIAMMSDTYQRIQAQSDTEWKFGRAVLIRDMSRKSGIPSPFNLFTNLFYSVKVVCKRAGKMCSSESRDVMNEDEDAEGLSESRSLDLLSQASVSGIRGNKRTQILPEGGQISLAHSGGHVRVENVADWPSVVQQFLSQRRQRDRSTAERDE

[4] = target: T1, Mucolipin-3 (Homo sapiens, UniProt Q8TDD5); test: Dose response cell-based high-throughput screening assay for agonists of the transient receptor potential channel ML3 (TRPML3). [Related pubchem assays: 1526, 1424, 1448 ]; type: functional
T1 sequence (Q8TDD5 whole entry): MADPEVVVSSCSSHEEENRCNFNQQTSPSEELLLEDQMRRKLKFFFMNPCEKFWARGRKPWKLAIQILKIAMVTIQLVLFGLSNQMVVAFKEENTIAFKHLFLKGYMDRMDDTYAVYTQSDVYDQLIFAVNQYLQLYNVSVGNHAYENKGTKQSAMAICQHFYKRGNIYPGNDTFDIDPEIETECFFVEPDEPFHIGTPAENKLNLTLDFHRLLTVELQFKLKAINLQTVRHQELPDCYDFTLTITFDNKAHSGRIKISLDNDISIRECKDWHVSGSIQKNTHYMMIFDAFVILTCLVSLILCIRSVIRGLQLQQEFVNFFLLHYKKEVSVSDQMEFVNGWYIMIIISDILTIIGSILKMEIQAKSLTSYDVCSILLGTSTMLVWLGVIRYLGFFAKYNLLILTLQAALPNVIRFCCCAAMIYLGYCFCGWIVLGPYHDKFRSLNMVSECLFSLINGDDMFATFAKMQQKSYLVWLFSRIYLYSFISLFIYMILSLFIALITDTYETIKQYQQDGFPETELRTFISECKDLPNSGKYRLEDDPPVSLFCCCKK

[5] = target: T2, Estrogen receptor (Homo sapiens, UniProt P03372);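 note: potency for inhibiting coactivator peptide recruitment to the receptor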
T2 sequence (P03372 whole entry): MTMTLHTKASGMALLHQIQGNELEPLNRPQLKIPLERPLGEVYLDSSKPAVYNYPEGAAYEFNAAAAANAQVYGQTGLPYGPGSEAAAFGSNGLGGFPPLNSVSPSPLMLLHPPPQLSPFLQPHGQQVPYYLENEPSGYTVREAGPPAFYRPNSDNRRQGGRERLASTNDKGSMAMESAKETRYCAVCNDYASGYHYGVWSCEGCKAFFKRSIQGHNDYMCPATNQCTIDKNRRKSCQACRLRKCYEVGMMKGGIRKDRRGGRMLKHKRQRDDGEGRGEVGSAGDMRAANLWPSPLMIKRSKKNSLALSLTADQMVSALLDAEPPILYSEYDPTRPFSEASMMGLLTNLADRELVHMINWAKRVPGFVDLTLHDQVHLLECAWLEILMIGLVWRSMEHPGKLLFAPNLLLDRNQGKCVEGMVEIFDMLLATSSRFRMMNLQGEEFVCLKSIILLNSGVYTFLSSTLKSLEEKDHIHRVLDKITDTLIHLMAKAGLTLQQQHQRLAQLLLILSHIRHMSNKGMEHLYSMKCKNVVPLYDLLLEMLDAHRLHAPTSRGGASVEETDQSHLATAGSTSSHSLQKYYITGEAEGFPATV

[6] = target: T3, Protein Tat (Human immunodeficiency virus type 1 group M subtype B (isolate HXB2)(HIV-1), UniProt P04608); type: functional;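 note: tat binding to TAR RNA read out by fluorescence polarization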
T3 sequence (P04608 whole entry): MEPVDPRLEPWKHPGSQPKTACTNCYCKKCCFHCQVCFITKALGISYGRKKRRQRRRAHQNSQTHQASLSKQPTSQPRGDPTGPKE

[7] = growth suppression of PTEN-null colon cells, dose response, cell-based, HCT116 PTEN knockout (AID 1047); type: functional;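 note: HCT116 colon tumor cells with PTEN knocked out; cells exposed to compound for 60 hours before readout; potency for loss of cell viability measured by luminescence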
[8] = growth suppression of beta-catenin-knockout colon cells, dose response, cell-based, HCT116, human colon tumor (AID 1045); type: functional;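 note: HCT116 colon tumor cells with beta catenin knocked out; cells exposed to compound for 60 hours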
[9] = target: T4, fMet-Leu-Phe receptor (Homo sapiens, UniProt P21462); test: FPR ligands, dose response (AID 519); type: functional
T4 sequence (P21462 whole entry): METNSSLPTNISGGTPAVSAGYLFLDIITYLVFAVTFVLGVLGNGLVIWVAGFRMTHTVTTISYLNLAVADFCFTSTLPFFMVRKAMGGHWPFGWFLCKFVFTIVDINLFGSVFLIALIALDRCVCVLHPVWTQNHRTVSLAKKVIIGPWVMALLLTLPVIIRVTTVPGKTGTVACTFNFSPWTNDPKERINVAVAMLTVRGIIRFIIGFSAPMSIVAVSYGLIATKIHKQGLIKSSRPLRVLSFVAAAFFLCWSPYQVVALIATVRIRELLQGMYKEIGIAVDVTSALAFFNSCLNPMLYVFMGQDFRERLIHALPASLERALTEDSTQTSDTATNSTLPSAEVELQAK

[10] = target: T5, RNA-binding protein pos-1 (Caenorhabditis elegans, UniProt G5EF15); test: inhibitors of POS-1/mex-3 RNA binding, dose response, biochemical, fluorescence polarization (AID 1964);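 note: purified POS-1 fused to maltose binding protein made in E. coli; potency of compounds blocking POS-1 binding to fluorescent RNA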
T5 sequence (G5EF15 whole entry): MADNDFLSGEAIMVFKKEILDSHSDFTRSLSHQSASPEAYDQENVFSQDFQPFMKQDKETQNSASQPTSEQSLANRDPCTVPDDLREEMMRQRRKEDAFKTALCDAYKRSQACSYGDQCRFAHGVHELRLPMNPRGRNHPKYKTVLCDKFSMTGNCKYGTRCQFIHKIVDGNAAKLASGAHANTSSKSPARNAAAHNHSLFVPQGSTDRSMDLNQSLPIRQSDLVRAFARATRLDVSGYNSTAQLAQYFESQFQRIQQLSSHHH

[11] = target: T6, Leucine aminopeptidase (Plasmodium falciparum 3D7, UniProt Q8IL11); test: P. falciparum M17LAP inhibitors, primary screen, biochemical, fluorogenic H-Leu-NHMec substrate, 1536-well (AID 1619); type: functional
T6 sequence (Q8IL11 whole entry): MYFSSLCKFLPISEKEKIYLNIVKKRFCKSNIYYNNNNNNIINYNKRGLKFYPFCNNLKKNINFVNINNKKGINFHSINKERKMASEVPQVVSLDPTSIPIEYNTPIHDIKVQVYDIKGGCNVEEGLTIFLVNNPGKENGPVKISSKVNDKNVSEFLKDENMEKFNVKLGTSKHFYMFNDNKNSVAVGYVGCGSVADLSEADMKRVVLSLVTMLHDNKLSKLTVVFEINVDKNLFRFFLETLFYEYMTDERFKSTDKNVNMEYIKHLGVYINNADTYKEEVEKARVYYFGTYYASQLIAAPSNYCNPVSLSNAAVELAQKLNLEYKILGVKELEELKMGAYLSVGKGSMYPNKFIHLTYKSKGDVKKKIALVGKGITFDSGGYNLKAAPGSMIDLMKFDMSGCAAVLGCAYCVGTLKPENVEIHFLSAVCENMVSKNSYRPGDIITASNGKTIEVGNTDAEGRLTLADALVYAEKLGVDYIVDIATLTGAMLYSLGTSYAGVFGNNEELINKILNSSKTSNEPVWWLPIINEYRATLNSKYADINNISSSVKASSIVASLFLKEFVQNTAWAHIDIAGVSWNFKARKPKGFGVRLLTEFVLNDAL

[12] = target: T7, Zinc finger protein mex-5 (Caenorhabditis elegans, UniProt Q9XUB2); test: MEX-5/TCR-2 RNA interaction inhibitors, dose response, biochemical, C. elegans, fluorescence polarization (AID 1960)
T7 sequence (Q9XUB2 whole entry): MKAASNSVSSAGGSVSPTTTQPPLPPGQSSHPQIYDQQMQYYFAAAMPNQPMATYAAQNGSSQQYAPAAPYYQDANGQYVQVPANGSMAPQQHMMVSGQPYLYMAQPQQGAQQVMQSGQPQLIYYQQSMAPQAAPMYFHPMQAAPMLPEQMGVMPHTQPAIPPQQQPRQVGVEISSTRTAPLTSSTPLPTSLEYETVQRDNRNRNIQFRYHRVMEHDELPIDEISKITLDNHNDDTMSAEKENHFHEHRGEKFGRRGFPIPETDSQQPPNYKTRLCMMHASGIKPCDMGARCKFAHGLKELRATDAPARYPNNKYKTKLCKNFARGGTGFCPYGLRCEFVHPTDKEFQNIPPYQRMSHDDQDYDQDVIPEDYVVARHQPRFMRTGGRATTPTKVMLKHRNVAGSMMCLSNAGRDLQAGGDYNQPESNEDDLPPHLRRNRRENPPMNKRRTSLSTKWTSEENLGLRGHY

[13] = target: T8, Mannose-6-phosphate isomerase (Homo sapiens, UniProt P34949); test: inhibitors of human PMI, primary screen, biochemical, fluorescence intensity, coupled assay (AID 1209)
T8 sequence (P34949 whole entry): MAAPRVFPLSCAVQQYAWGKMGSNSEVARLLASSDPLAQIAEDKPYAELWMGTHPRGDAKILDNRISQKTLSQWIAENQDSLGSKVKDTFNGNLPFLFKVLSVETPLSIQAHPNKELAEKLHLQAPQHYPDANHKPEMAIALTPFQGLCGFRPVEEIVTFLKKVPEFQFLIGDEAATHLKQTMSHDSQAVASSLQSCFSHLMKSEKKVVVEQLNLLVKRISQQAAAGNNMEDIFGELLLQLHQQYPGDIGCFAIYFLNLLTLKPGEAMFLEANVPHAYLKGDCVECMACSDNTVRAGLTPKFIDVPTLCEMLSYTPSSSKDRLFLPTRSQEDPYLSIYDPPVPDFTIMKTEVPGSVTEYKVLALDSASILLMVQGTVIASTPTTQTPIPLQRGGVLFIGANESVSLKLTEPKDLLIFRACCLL

[14] = target: Cytochrome P450 2C9 (Homo sapiens, UniProt P11712)
Chain of Cytochrome P450 2C9 (P11712 whole entry): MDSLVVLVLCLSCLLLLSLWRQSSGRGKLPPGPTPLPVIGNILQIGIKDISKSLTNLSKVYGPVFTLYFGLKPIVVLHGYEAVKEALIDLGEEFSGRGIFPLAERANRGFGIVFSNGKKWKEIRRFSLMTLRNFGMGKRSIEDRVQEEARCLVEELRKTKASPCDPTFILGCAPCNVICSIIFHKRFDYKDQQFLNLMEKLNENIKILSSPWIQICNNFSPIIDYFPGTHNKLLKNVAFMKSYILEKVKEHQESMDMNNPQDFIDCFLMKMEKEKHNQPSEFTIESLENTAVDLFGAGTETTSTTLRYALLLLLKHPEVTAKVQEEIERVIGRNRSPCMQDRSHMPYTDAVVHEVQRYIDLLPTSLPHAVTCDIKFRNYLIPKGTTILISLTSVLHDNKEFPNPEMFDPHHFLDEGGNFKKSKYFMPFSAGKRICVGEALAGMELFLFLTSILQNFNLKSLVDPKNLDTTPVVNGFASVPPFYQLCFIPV

[15] = P. falciparum Dd2 growth inhibitors, dose response, SYBR Green, cherry-picked samples (AID 1159567); type: functional, cell-based
[16] = P. falciparum 3D7-ScDHODH growth inhibitors, dose response, SYBR Green, dry powder samples (AID 1159570); type: functional, cell-based;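 note: parasite growth measured after 72 hours of compound exposure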
[17] = P. falciparum ATP4 D1247Y mutant growth inhibitors, dose response, NITD609-resistant line, SYBR Green, dry powder (AID 1159571); type: functional, cell-based;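 note: parasites synchronized at ring stage by sorbitol before testing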
[18] = HepG2 cell cytotoxicity, dose response, cytotoxicity control, plate reader, dry powder samples (AID 1159569); type: functional, cell-based;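 note: inhibitor potency with signal falling toward the positive control level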
[19] = P. falciparum Dd2 growth inhibitors, dose response, SYBR Green, dry powder samples (AID 1159566); type: functional, cell-based;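 note: potency for growth inhibition with lower SYBR green DNA signal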

Structure (SMILES): O=C(CSc1nnc(-c2ccc(F)cc2)o1)NC1CCCCC1
IC50 [1]: > 109 µM (inactive)
IC50 [2]: > 83.3 µM (inactive)

Structure (SMILES): O=C(c1ccccc1F)N(NC(=O)C(O)(c1ccccc1)c1ccccc1)c1ccccc1
EC50 [3]: > 29.9 µM (not active)
EC50 [4]: 10.4 µM (not active)

Structure (SMILES): Cc1cccc(N2CCN(c3nc4ccccc4n4cnnc34)CC2)c1C
EC50 [7]: 23.4 µM (active)
IC50 [5]: 38.8 µM (not active)
EC50 [8]: 25.4 µM (active)

Structure (SMILES): C=CCCC(=O)Nc1ccc(Br)cn1
IC50 [1]: > 109 µM (inactive)
IC50 [2]: > 83.3 µM (inactive)

Structure (SMILES): O=S1(=O)OCCC(c2ccccc2)N1Cc1ccccc1 (stereo not drawn)
IC50 [1]: > 109 µM (inactive)
IC50 [2]: > 83.3 µM (inactive)

Structure (SMILES): CCc1ccc(N2C(=O)CC(Cn3nc(C)cc3C)C2=O)cc1 (stereo not drawn)
IC50 [1]: > 109 µM (inactive)
IC50 [2]: > 83.3 µM (inactive)

Structure (SMILES): CC(C)CC#Cc1ccc([C@H]2[C@@H](CO)N3C(=O)CN(C(=O)Cc4ccccc4)C[C@H]23)cc1
AC50 [15]: 0.424 µM (active)
AC50 [16]: 2.02 µM (active)
AC50 [17]: 1.09 µM (active)
AC50 [18]: 26.3 µM (active)
AC50 [19]: 0.836 µM (active)

Structure (SMILES): CO[C@@H]1CN(C)C(=O)c2cc(NC(=O)c3ccccc3F)ccc2OC[C@H](C)N(C(=O)c2ccccc2F)C[C@@H]1C
AC50 [15]: 2.47 µM (active)
AC50 [16]: 2.87 µM (active)
AC50 [17]: 1.64 µM (active)
AC50 [18]: > 100 µM (inactive)
AC50 [19]: 1.1 µM (active)

Structure (SMILES): O=S(=O)(c1ccccc1)N1C[C@@H]2N[C@H](C1)[C@H]2c1ccc(-c2ccc(F)cc2)cc1
AC50 [15]: 1.54 µM (active)
AC50 [16]: 1.27 µM (active)
AC50 [17]: 1.85 µM (active)
AC50 [18]: 14.3 µM (active)
AC50 [19]: 1.47 µM (active)

Structure (SMILES): Cc1ccccc1S(=O)(=O)N1CC(=O)N2[C@H](CO)[C@H](c3ccc(C#CCC4CCCC4)cc3)[C@H]2C1
AC50 [15]: 1.9 µM (active)
AC50 [16]: 1.2 µM (active)
AC50 [17]: 1.42 µM (active)
AC50 [18]: 26.5 µM (active)
AC50 [19]: 0.411 µM (active)

The next lines start with the values.

IC50 [5]: > 50 µM (not active)
Structure (SMILES): Cc1nn(Cc2ccccc2)c(C)c1NC(=O)CSc1nnc(-c2cc(Cl)ccc2O)n1C

IC50 [6]: > 100 µM (active)
Structure (SMILES): CCc1ccc(CC)c(S(=O)(=O)Nc2ccc(C(=O)O)c(O)c2)c1

Ki [9]: > 66.7 µM (inactive)
Structure (SMILES): O=C(NCCCN1CCN(c2ccc(F)cc2)CC1)c1cccc(N2CCCC2=O)c1

EC50 [10]: 14.4 µM (active)
IC50 [11]: 37.2 µM (active)
IC50 [5]: 24.7 µM (active)
EC50 [12]: 12.2 µM (active)
Structure (SMILES): O=C1C2CC=C(Cl)CC2C(=O)N1CCCCCCN1C(=O)C2CC=C(Cl)CC2C1=O (stereo not drawn)

IC50 [13]: > 50 µM (not active)
Structure (SMILES): N#C/C(=C\c1cccnc1)C(=O)Nc1ccccc1

IC50 [6]: > 100 µM (active)
Structure (SMILES): COc1ccc(-c2nc3oc4cc(OC)ccc4c(=O)c3c(=O)n2Cc2ccco2)cc1

AC50 [14]: 28.2 µM (inconclusive)
Ki [9]: 49.8 µM (inactive)
Structure (SMILES): CCC(CC)C(=O)/N=c1\c2cnn(-c3ccccc3)c2[nH]c(=O)n1-c1ccccc1

EC50 [3]: > 29.9 µM (not active)
EC50 [4]: 0.342 µM (active)
Structure (SMILES): CC(C)Oc1ccc(/C=N/NC(=O)C(CSCc2ccccc2)NC(=O)c2ccc([N+](=O)[O-])cc2)cc1 (stereo not drawn)

IC50 [13]: > 50 µM (not active)
Structure (SMILES): CC1(C)CC(=O)C(/C=N/c2ccc3[nH]ncc3c2)=C(O)C1

IC50 [13]: 18.3 µM (active)
Structure (SMILES): Cc1ccc(/C=N/n2c(S)nnc2-c2ccncc2)cc1
